Test results: US20250188136A1, “AV3 MUTANT POLYPEPTIDES FOR PEST CONTROL” (Vestaron Corporation, priority 2021, published 2025)
Entries after “also recorded” stand apart in the source; their conditions may differ. Ends that are not written are not given here.

Experiments:
houseflies = assay: Housefly injection assay (knock-down); type: in vivo, Musca domestica
Experimental: An exemplary housefly injection bioassay is as follows: conditioned media is serially diluted to generate full dose-response curves from the housefly injection bioassay. Before injection, adult houseflies (Musca domestica) are immobilized with CO2, and 12-18 mg houseflies are selected for injection. A microapplicator, loaded with a 1 cc syringe and 30-gauge needle, is used to inject 0.5 μL per fly, doses of serially diluted conditioned media samples into houseflies through the body wall of the dorsal thorax. The injected houseflies are placed into closed containers with moist filter paper and breathing holes on the lids, and they are examined by knock-down ratio or by mortality scoring at 24 hours post-injection. Normalized yields are calculated. Peptide yield means the peptide concentration in the conditioned media in units of mg/L. However, peptide yields are not always sufficient to accurately compare the strain production rate. […] A culture with a high cell density may produce a higher concentration of the peptide in the media, even though the peptide production rate of the strain is lower than another strain which has a higher production rate. Accordingly, the term “normalized yield” is created by dividing the peptide yield with the cell density in the corresponding culture and this allows a better comparison of the peptide production rate between strains. The cell density is represented by the light absorbance at 600 nm with a unit of “A” (Absorbance unit).
A housefly injection assay was performed to determine the activity of the new mutants. Adult houseflies were immobilized with CO2 for 10 minutes, and then transferred to a CO2 pan to keep immobilized. Flies with weight between 12-20 mg were picked for injection. The new mutants and Av3b control were diluted in water to proper doses for injection. Next, a 0.5 μL peptide solution was injected into each housefly at the dorsal thorax using a hand-microapplicator with 1 cc all-glass syringe with 30 gauge straight needle. The injected flies were then transferred to a 2 oz. transparent portion container with a wet #4 filter paper. Fly knock-down was assessed at 5-hours post-injection. The activity of a given new mutant was then normalized to the activity of the Av3b production strain (control), using the fly knock-down score at 5 hours.

[1] = DASbox small-scale fermentation, degradation by HPLC and LC/MS; type: physicochemical; settings: DASbox fed batch fermentation runs
Experimental: DASbox® is a parallel bioreactor system (Eppendorf, 175 Freshwater Blvd, Enfield, CT 06082, USA). The DASbox system used here contains 8 fermentation vessels with 250 mL volume capacity, allowing 8 small scale fermentation runs simultaneously. The DASbox fermentation runs were performed according to the manufacturer's instructions, and using the fermentation conditions described herein.
The screening of the Av3b mutants was conducted using a fed batch process in aerobic bioreactor. Reactors were initially filled to ˜45% capacity with a rich culture media containing 5-20 g/L of a carbon source such as glucose, sorbitol, or lactose, 5-20 g/L phosphoric acid, 0.1-1.5 g/L Calcium sulfate, 5-15 g/L Potassium sulfate, 0.5-10 g/L Magnesium sulfate heptahydrate, 1-5 g/L potassium hydroxide, and 10-60 g/L of corn steep liquor. The temperature of the reactor was maintained between 25-35° C. for the duration of the fermentation. The pH was held constant between 4-5.5 with the addition of 15% ammonium hydroxide. Dissolved oxygen was held constant by sparging air between 0.5-1.5 volume/volume/min and by increasing agitation to maintain a set point of 10-30%.
Inoculation of the reactor was from an overnight seed culture containing 5-40 g/L of a carbon source such as glucose, sorbitol, or lactose, and 5-40 g/L of corn steep liquor. Inoculation percentage ranged from 5-20% of initial fill volume. Once inoculated, the reactor was fed with a 70% solution of the selected carbon source until the reactor was filled and/or desired supernatant peptide concentration was achieved, approximately 96-140 hours and 0.8-1.2 g/L, respectively.

Sequence: KSCCPCYWGGCPWGQNCYPEGCDGPK (ends and bridges not checked; cysteine pairing not given here) [Av3bM24]
- housefly knock-down / insecticidal activity relative to Av3b (houseflies; knock-down at 5 hours post-injection): without a concomitant reduction in housefly knock-down activity; also recorded: insecticidal activity
- Activity (houseflies; knock-down at 5 hours post-injection normalized to Av3b, Yes = insecticidal activity maintained): Yes
- degradation detected via HPLC and LC/MS [1]: degradation was detected
